# In BindingDB's records for patent US20230399319 (Japan Tobacco, 2023):
# Molecular target: NACHT, LRR and PYD domains-containing protein 3 (Homo sapiens, UniProt Q96P20)
# Test: Evaluation of NLRP3 Inflammasome Inhibitory Activity Assay
# Protocol: The NLRP3 inflammasome inhibitory activity of test compounds were evaluated CM the basis of the inhibitory activity of the IL-1β, production in THP1-Null cells (Product Number: thp-null, InvivoGen). […] A solution containing a test compound (20 μL/well) was added to test compound-setting wells. […] The supernatant of the culture was cryonically stored (set at −20° C.) until measurement of IL-1β.
# Sequence of NACHT, LRR and PYD domains-containing protein 3 (Q96P20 whole entry, the tested form may be a part): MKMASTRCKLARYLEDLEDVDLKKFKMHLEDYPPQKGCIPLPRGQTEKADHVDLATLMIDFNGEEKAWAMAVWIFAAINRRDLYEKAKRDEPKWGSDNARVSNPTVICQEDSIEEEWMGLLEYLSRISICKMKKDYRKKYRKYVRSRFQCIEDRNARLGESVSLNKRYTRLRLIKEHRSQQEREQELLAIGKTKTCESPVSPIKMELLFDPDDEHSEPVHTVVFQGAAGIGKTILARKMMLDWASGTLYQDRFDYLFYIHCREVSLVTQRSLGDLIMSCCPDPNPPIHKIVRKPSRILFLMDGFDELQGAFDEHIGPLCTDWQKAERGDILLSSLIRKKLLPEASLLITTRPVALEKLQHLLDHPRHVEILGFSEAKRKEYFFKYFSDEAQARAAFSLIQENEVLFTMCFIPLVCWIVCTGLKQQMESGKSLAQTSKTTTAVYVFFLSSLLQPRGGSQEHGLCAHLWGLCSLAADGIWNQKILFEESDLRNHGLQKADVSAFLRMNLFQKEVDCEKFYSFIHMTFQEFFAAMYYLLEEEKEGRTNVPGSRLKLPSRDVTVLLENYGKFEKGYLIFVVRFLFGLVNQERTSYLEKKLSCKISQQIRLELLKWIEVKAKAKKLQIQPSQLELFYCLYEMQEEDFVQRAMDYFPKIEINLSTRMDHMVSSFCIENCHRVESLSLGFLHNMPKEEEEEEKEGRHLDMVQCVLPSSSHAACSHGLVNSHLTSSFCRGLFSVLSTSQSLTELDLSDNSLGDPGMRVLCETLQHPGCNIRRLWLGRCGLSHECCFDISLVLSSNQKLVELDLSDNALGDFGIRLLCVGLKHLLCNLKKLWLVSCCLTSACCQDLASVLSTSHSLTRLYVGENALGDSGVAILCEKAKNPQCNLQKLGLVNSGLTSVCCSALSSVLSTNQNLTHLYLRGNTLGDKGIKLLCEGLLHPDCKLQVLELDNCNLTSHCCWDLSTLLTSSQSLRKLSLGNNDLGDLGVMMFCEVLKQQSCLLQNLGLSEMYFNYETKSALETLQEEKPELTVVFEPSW
row,SMILES,IC50 [µM]
1,"CC(C)c1ccc(C(F)(F)F)cc1Nc1nc(C(=O)NS(=O)(=O)N2CCCN(C)CC2)co1 [US20230399319, Example 2-123]",0.21
2,"Cc1ccc(C(F)(F)F)cc1Nc1nc(C(=O)NS(=O)(=O)N(C)CCc2ccccn2)co1 [US20230399319, Example 2-287]",0.064
3,"CCCC1CCCN(S(=O)(=O)NC(=O)c2coc(Nc3cc(C(F)(F)F)ccc3C)n2)CC1 (stereo not drawn) [US20230399319, Example 2-233]",0.48
4,"CCC(CC)n1cc(C)c(Nc2nc(C(=O)NS(=O)(=O)N3CCCOCC3)co2)n1 [US20230399319, Example 2-168]",9.8
5,"CCC1(C#N)CCCN(S(=O)(=O)NC(=O)c2coc(Nc3cc(C(F)(F)F)ccc3C)n2)CC1 (stereo not drawn) [US20230399319, Example 2-240]",0.031
6,"Cc1ccc(C)c(Nc2nc(C(=O)NS(=O)(=O)N3CCOC(CC#N)CC3)co2)c1 (stereo not drawn) [US20230399319, Example 2-349]",1.2
7,"Cc1ccc(C(F)(F)F)cc1Nc1nc(C(=O)NS(=O)(=O)N2CCN(S(=O)(=O)C(C)C)CC2)co1 [US20230399319, Example 2-267]",0.088
8,"Cc1cn(C(C)C(F)(F)F)nc1Nc1nc(C(=O)NS(=O)(=O)N2CCCOCC2)co1 (stereo not drawn) [US20230399319, Example 2-178]",0.88
9,"Cc1cc(Cl)c(C(C)C)cc1Nc1nc(C(=O)NS(=O)(=O)N(C)C)co1 [US20230399319, Example 2-027]",0.034
10,"Cc1ccc(C)c(Nc2nc(C(=O)NS(=O)(=O)N3CCCC(C#N)CC3)co2)c1 (stereo not drawn) [US20230399319, Example 2-300]",0.19
11,"Cc1ccc(C)c(Nc2nc(C(=O)NS(=O)(=O)N3CCCOCC3)co2)c1C [US20230399319, Example 2-114]",0.34
12,"COCCN(CCOC)S(=O)(=O)NC(=O)c1coc(Nc2cc(C(F)(F)F)ccc2C)n1 [US20230399319, Example 2-164]",0.14
13,"Cc1ccc(C(F)(F)F)cc1Nc1nc(C(=O)NS(=O)(=O)N2CCCC(C#N)(C(=O)N3CCCC3)CC2)co1 (stereo not drawn) [US20230399319, Example 2-261]",0.028
14,"Cc1ccc(C(F)(F)F)cc1Nc1nc(C(=O)NS(=O)(=O)N(C(C)C)C(C)C)co1 [US20230399319, Example 2-051]",0.044
15,"COC[C@H]1CCN(S(=O)(=O)NC(=O)c2coc(Nc3cc(C)c(F)cc3C)n2)CCO1 [US20230399319, Example 3-001]",0.072
16,"CCOCC1CCN(S(=O)(=O)NC(=O)c2coc(Nc3cc(C)c(F)cc3C(C)C)n2)CCO1 (stereo not drawn) [US20230399319, Example 2-335]",0.018
17,"Cc1ccc(C(F)(F)F)cc1Nc1nc(C(=O)NS(=O)(=O)N2CCC(S(C)(=O)=O)CC2)co1 [US20230399319, Example 2-018]",0.05
18,"Cc1cc(Nc2nc(C(=O)NS(=O)(=O)N3CCOC(C(C)(C)O)CC3)co2)c(C)cc1F (stereo not drawn) [US20230399319, Example 3-002]",0.049
19,"COCC1COCCN(S(=O)(=O)NC(=O)c2coc(Nc3cc(C(F)(F)F)ccc3C)n2)C1 (stereo not drawn) [US20230399319, Example 2-151]",0.064
20,"Cc1ccc(C(F)(F)F)cc1Nc1nc(C(=O)NS(=O)(=O)N2CCC(C#N)C2)co1 (stereo not drawn) [US20230399319, Example 2-221]",0.21
21,"CCCOCC1CCN(S(=O)(=O)NC(=O)c2coc(Nc3cc(C)ccc3C)n2)CCO1 (stereo not drawn) [US20230399319, Example 2-323]",0.035

row,SMILES,IC50 [µM]
1,"Cc1ccc(C(F)(F)F)cc1Nc1nc(C(=O)NS(=O)(=O)N2CCC(CS(C)(=O)=O)CC2)co1 [US20230399319, Example 2-022]",0.24
2,"CC1(C)CCN(S(=O)(=O)NC(=O)c2coc(Nc3c4c(c(F)c5c3CCC5)CCC4)n2)C1 [US20230399319, Example 2-009]",0.38
3,"CCOCC1CCN(S(=O)(=O)NC(=O)c2coc(Nc3cc(OC)c(F)cc3C)n2)CCO1 (stereo not drawn) [US20230399319, Example 2-352]",0.026
4,"Cc1ccc(C(C)C)cc1Nc1nc(C(=O)NS(=O)(=O)N(C)Cc2ccccn2)co1 [US20230399319, Example 2-167]",0.048
5,"COC(=O)CC1COCCN1S(=O)(=O)NC(=O)c1coc(Nc2c3c(c(Cl)c4c2CCC4)CCC3)n1 (racemic) [US20230399319, Example 73]",0.13
6,"CC(C)c1ccc(C(C)C)c(Nc2nc(C(=O)NS(=O)(=O)N3CCCOCC3)co2)c1 [US20230399319, Example 2-071]",0.043
7,"Cc1ccc(C(F)(F)F)cc1Nc1nc(C(=O)NS(=O)(=O)N2CCCCCC2)co1 [US20230399319, Example 2-145]",0.042
8,"Cc1ccc(C(F)(F)F)cc1Nc1nc(C(=O)NS(=O)(=O)N(C)CC2CCCC2)co1 [US20230399319, Example 2-208]",0.089
9,"Cc1ccc(C(F)(F)F)cc1Nc1nc(C(=O)NS(=O)(=O)N(C)CCC(=O)N(C)C)co1 [US20230399319, Example 2-338]",0.077
10,"Cc1ccc(C(C)(C)C)cc1Nc1nc(C(=O)NS(=O)(=O)N(C)CCN(C)C)co1 [US20230399319, Example 2-132]",1.9
11,"CC(C)c1cc(Nc2nc(C(=O)NS(=O)(=O)N3CCCOCC3)co2)n(C(C)C)n1 [US20230399319, Example 2-202]",2.2
12,"Cc1ccc(C(F)(F)F)cc1Nc1nc(C(=O)NS(=O)(=O)N(Cc2ccccc2)C(C)C)co1 [US20230399319, Example 2-207]",0.18
13,"Cc1ccc(C(F)(F)F)cc1Nc1nc(C(=O)NS(=O)(=O)N(C)Cc2ccccc2)co1 [US20230399319, Example 2-163]",0.049
14,"CC(C)c1nn(C(C)C)cc1Nc1nc(C(=O)NS(=O)(=O)N2CCCC(C#N)CC2)co1 (stereo not drawn) [US20230399319, Example 2-191]",0.35
15,"CN(C)S(=O)(=O)NC(=O)c1coc(Nc2cc(C(F)(F)F)ccc2C2CC2)n1 [US20230399319, Example 2-067]",0.092
16,"COC[C@@H]1CCN(S(=O)(=O)NC(=O)c2coc(Nc3cc(C)c(F)cc3C)n2)CCO1 [US20230399319, Example 2-347]",0.055
17,"Cc1ccc(C(F)(F)F)cc1Nc1nc(C(=O)NS(=O)(=O)N(C)C2CC2)co1 [US20230399319, Example 2-165]",0.1
18,"COCCN(Cc1ccccc1)S(=O)(=O)NC(=O)c1coc(Nc2cc(C(F)(F)F)ccc2C)n1 [US20230399319, Example 2-268]",0.055
19,"CCCS(=O)(=O)C1CCCN(S(=O)(=O)NC(=O)c2coc(Nc3cc(C)ccc3C(C)C)n2)CC1 (stereo not drawn) [US20230399319, Example 2-311]",0.018
20,"Cc1cn(C(C)C)nc1Nc1nc(C(=O)NS(=O)(=O)N2CCCC(C#N)CC2)co1 (stereo not drawn) [US20230399319, Example 2-192]",0.16
21,"Cc1ccc(C(F)(F)F)cc1Nc1nc(C(=O)NS(=O)(=O)N2CCN(S(=O)(=O)N(C)C)CC2)co1 [US20230399319, Example 2-266]",0.05

row,SMILES,IC50 [µM]
1,"Cc1c(Nc2nc(C(=O)NS(=O)(=O)N(C)C)co2)cc(C(F)(F)F)cc1C(F)(F)F [US20230399319, Example 2-041]",0.34
2,"Cc1ccc(C(F)(F)F)cc1Nc1nc(C(=O)NS(=O)(=O)N2CC(F)(F)C2)co1 [US20230399319, Example 2-077]",0.53
3,"CCCCS(=O)(=O)N1CCN(S(=O)(=O)NC(=O)c2coc(Nc3cc(C(F)(F)F)ccc3C)n2)CC1 [US20230399319, Example 2-247]",0.022
4,"CCCS(=O)(=O)C1CCCN(S(=O)(=O)NC(=O)c2coc(Nc3nn(C(C)C)cc3C)n2)CC1 (stereo not drawn) [US20230399319, Example 2-302]",0.036
5,"Cc1ccc(C(F)(F)F)cc1Nc1nc(C(=O)NS(=O)(=O)N2CCOCC(F)(F)C2)co1 [US20230399319, Example 2-190]",0.017
6,"Cc1ccc(C(F)(F)F)cc1Nc1nc(C(=O)NS(=O)(=O)N2CCCC(C#N)CC2)co1 (stereo not drawn) [US20230399319, Example 2-141]",0.0097
7,"Cc1ccc(C(F)(F)F)cc1Nc1nc(C(=O)NS(=O)(=O)N2CCCC(CC#N)CC2)co1 (stereo not drawn) [US20230399319, Example 2-150]",0.025
8,"CC1CCN(S(=O)(=O)NC(=O)c2coc(Nc3c4c(c(F)c5c3CCC5)CCC4)n2)C1 (stereo not drawn) [US20230399319, Example 2-008]",0.18
9,"Cc1cn(C2CCCC2)nc1Nc1nc(C(=O)NS(=O)(=O)N2CCCOCC2)co1 [US20230399319, Example 2-153]",2.3
10,"CCC(C)n1cc(C)c(Nc2nc(C(=O)NS(=O)(=O)N3CCCOCC3)co2)n1 (stereo not drawn) [US20230399319, Example 2-200]",1.1
11,"CC(C)c1ccc(C(F)(F)F)cc1Nc1nc(C(=O)NS(=O)(=O)N2CCCOCC2)co1 [US20230399319, Example 2-072]",0.027
12,"CC(C)c1ccc(C(F)(F)F)cc1Nc1nc(C(=O)NS(=O)(=O)N2CCCC2CO)co1 (stereo not drawn) [US20230399319, Example 2-124]",0.047
13,"Cc1cc(Cl)c(C(C)C)cc1Nc1nc(C(=O)NS(=O)(=O)N2CCOCC2)co1 [US20230399319, Example 2-028]",< 0.03
14,"CCCCS(=O)(=O)N1CCCN(S(=O)(=O)NC(=O)c2coc(Nc3cn(C(C)C)nc3C(C)C)n2)CC1 [US20230399319, Example 2-161]",0.07
15,"COC[C@H]1CCCN1S(=O)(=O)NC(=O)c1coc(Nc2cc(C(F)(F)F)ccc2C)n1 [US20230399319, Example 2-052]",0.13
16,"Cc1ccc(C(F)(F)F)cc1Nc1nc(C(=O)NS(=O)(=O)N2CCCCC2C(F)F)co1 (stereo not drawn) [US20230399319, Example 2-187]",0.11
17,"CC(C)c1ccc(C(F)(F)F)cc1Nc1nc(C(=O)NS(=O)(=O)N(C)C)co1 [US20230399319, Example 2-025]",< 0.03
18,"Cc1ccc(C(F)(F)F)cc1Nc1nc(C(=O)NS(=O)(=O)N2CCC(c3ccccc3)CC2)co1 [US20230399319, Example 2-282]",2.5
19,"Cc1ccc(C(F)(F)F)cc1Nc1nc(C(=O)NS(=O)(=O)N(C)CCS(C)(=O)=O)co1 [US20230399319, Example 2-280]",0.42
20,"CCCS(=O)(=O)C1CCCN(S(=O)(=O)NC(=O)c2coc(Nc3cc(C(F)(F)F)ccc3C(C)C)n2)CC1 (stereo not drawn) [US20230399319, Example 2-316]",0.022
21,"Cc1ccc(C(F)(F)F)cc1Nc1nc(C(=O)NS(=O)(=O)N(C)CCn2cccn2)co1 [US20230399319, Example 2-279]",0.074
